Measured values reported in patent US8703204B2, “Nanoparticles comprising a cholesteryl ester transfer protein inhibitor and anon-ionizable polymer” (Bend Research, Inc., priority 2007, dated 2014).
In brackets after ≈: the same amount, converted by molar mass. Like-named read-outs stand apart in the source and are kept apart here. Values belong to the compound of their own block, whether it stands above or below them.

Assay: Solubility of the drugs in aqueous media
Format: physicochemical

solubility (phosphate buffered saline, aqueous buffer, PBS, pH 6.5, read-out: solubility in phosphate buffered saline at pH 6.5 (PBS)): < 0.1 µg/mL
SMILES: CCc1cc(Oc2cccc(N(Cc3cccc(OC(F)(F)C(F)F)c3)C[C@@H](O)C(F)(F)F)c2)ccc1Cl [Drug 1, (2R)-3-[[3-(4-chloro-3-ethylphenoxy)phenyl][[3-(1,1,2,2-tetrafluoroethoxy)phenyl]methyl]amino]-1,1,1-trifluoro-2-propanol]

solubility (model fasted duodenal (MFD) solution, fassgf or other biorelevant, MFD solution, read-out: solubility in model fasted duodenal (MFD) solution): ~11 µg/mL (≈ 18.4 µM)
SMILES: CC[C@@H]1C[C@H](N(Cc2cc(C(F)(F)F)cc(C(F)(F)F)c2)C(C)=O)c2cc(C(F)(F)F)ccc2N1C(=O)OC(C)C [Drug 2, [2R,4S]4-[acetyl-(3,5-bis-trifluoromethyl-benzyl)-amino]-2-ethyl-6-trifluoromethyl-3,4-dihydro-2H-quinoline-1-carboxylic acid isopropyl ester]

solubility (water, read-out: solubility in water): < 0.1 µg/mL
SMILES: CCOC(=O)N1c2ccc(C(F)(F)F)cc2[C@@H](N(Cc2cc(C(F)(F)F)cc(C(F)(F)F)c2)C(=O)OC)C[C@H]1CC [Drug 3, [2R,4S]4-[(3,5-bis-trifluoromethyl-benzyl)-methoxycarbonyl-amino]-2-ethyl-6-trifluoromethyl-3,4-dihydro-2H-quinoline-1-carboxylic acid ethyl ester, reference compound]
